Some test systems named below: A498 renal; CAKI-1 renal; COLO 205 colon; HS 578T breast; HT29 colon; OVCAR-4 ovarian; SN12C renal; SNB-75 CNS; SR leukemia; T-47D breast.
What all share (experiment): growth of human tumour cells (NCI), 48 h

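The compound was tested at five concentrations on cells cultured in 96-well plates, with a 48-hour exposure period. TGI is the concentration that stops growth completely.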

With `C(=C\N1CCCCC1)/c1nnnn1-c1ccccc1`, the TGI with A498 renal was more than 100 µM; in the test with CAKI-1 renal, 38.2 µM; in the test on COLO 205 colon, more than 100 µM; with HS 578T breast, 49.4 µM; with HT29 colon, more than 100 µM; in the test with OVCAR-4 ovarian it was more than 100 µM. Besides, the TGI was more than 100 µM in the test on SN12C renal, 69.7 µM in the test on SNB-75 CNS, 55 µM in the test with SR leukemia and 76.3 µM in the test with T-47D breast.
Regarding `CCN(CC)c1ccc2cc(C(=O)Nc3ccccn3)c(=N)oc2c1`, the TGI is more than 100 µM in the test with A498 renal; more than 100 µM in the test with CAKI-1 renal; more than 100 µM in the test on COLO 205 colon; 88.5 µM with HS 578T breast; more than 100 µM in the test on HT29 colon; more than 100 µM in the test on OVCAR-4 ovarian. Moreover, the TGI in the test on SN12C renal, in the test with SNB-75 CNS, in the test with SR leukemia and in the test on T-47D breast was more than 100 µM in each case.
For `O=C1Nc2ccccc2/C1=c1\[nH]c(=O)/c(=C\c2ccc(OCc3ccccc3)cn2)[nH]c1=O`, the TGI is 77.9 µM with A498 renal; more than 100 µM in the test with CAKI-1 renal; more than 100 µM in the test with COLO 205 colon; 70.1 µM with HS 578T breast; more than 100 µM in the test with HT29 colon; more than 100 µM in the test with OVCAR-4 ovarian. Further, the TGI with SN12C renal was more than 100 µM; in the test on SNB-75 CNS, 14 µM; in the test on SR leukemia, 69.4 µM; with T-47D breast, more than 100 µM.
Regarding `CC(=N\N)/C(C)=N/N=C(C)/C(C)=N/N=C(C)/C(C)=N/N`, the TGI in the test with A498 renal, in the test on CAKI-1 renal, in the test on COLO 205 colon, in the test with HS 578T breast, with HT29 colon and in the test on OVCAR-4 ovarian was more than 100 µM throughout. Also, the TGI in the test on SN12C renal, in the test with SNB-75 CNS, with SR leukemia and with T-47D breast was more than 100 µM each time.
As to `N#C[C@H](c1nc2ccccc2s1)c1nc2ccccc2nc1Cl`, the TGI in the test with A498 renal is more than 100 µM; with CAKI-1 renal, more than 100 µM; in the test on COLO 205 colon it was more than 100 µM; in the test with HS 578T breast, more than 100 µM; with HT29 colon, more than 100 µM; in the test with OVCAR-4 ovarian it was 34.1 µM. Besides, the TGI in the test on SN12C renal, in the test on SNB-75 CNS, in the test with SR leukemia and in the test with T-47D breast was more than 100 µM throughout.
`Cn1c(N/N=C/c2ccccc2)nc(-c2ccc([N+](=O)[O-])cc2)c(C#N)c1=O`: the TGI with A498 renal, in the test with CAKI-1 renal, in the test on COLO 205 colon, in the test with HS 578T breast, with HT29 colon and in the test on OVCAR-4 ovarian was more than 100 µM in each case. The TGI in the test on SN12C renal, in the test with SNB-75 CNS, with SR leukemia and with T-47D breast was more than 100 µM each time.
`CCc1nc2ccc(NCCN(C)C)c3c(=O)c4ccccc4n1c23`: the TGI in the test with A498 renal turned out to be 11 µM; in the test on CAKI-1 renal, 7.89 µM; in the test on COLO 205 colon, 3.44 µM; in the test on HS 578T breast, 5.94 µM; with HT29 colon it was 5.08 µM; with OVCAR-4 ovarian, 4.35 µM. Moreover, the TGI with SN12C renal stood at 10.6 µM; in the test with SNB-75 CNS, 11.9 µM; with SR leukemia it was 7.66 µM; in the test with T-47D breast, 20.8 µM.
For `COC(OC)[C@@H]1OC[C@@H](O)[C@@H]1n1cnc2c(N)ncnc21`, the TGI in the test with A498 renal, with CAKI-1 renal, in the test with COLO 205 colon, with HS 578T breast, with HT29 colon and with OVCAR-4 ovarian was more than 100 µM throughout. In addition, the TGI with SN12C renal, in the test on SNB-75 CNS, in the test on SR leukemia and in the test on T-47D breast was more than 100 µM each time.

(Values after PubChem BioAssay (NCI).)
